Assay results taken from patent US20060194235A1, “HLJ1 gene expression” (priority 2005, published 2006).

Legend:
PCY3 cells = assay: In vitro Matrigel invasion assay; format: cell-based, human; conditions: siRNA treated
Protocol: The metastatic potential of tumors depends, in part, on the ability of the tumor cells to invade through a basement membrane and migrate to distant sites. The ability of cells transfected with HLJ1 to penetrate a Matrigel™ membrane using an in vitro assay, which is a modified Boyden chamber assay, as described in Example 15, was determined as an index of the metastatic potential of these cells. The YY1 transfectant PCY3, which expressed a high level of HLJ1, reduced cell invasion capability to about 56% and about 61% of the levels of CL1-0 and mock transfectants, respectively (68).
In vitro Matrigel™ invasion assays were performed in 6.5-mm transwell chambers (8 μm pore size; Costar®). The transwell filters in the chambers were coated with Matrigel™ (Becton Dickinson, Franklin Lakes, N.J.) (58). After a 16 or 24 h incubation, the filter was gently removed from the chamber, and the noninvasive cells on the upper surface were removed by wiping with a cotton swab. The cells that invaded the Matrigel™ and attached to the lower surface of the filter were fixed with methanol and stained with Giemza solution (Sigma, St. Louis, Mo.). The number of cells attached to the lower surface of the polycarbonate filter was counted under a light microscope at 200× magnification. Five fields of adherent cells were randomly counted in each well and the results were numerically averaged. […]

HLJ1 = assay: siRNA knock-down of endogenous HLJ1 in the YY1 transfected cell line PCY3; format: cell-based, human; conditions: PCY3 cells
Text: Inhibiting the ability of transfected cells to express HLJ1 can restore their invasive capacity. Small inhibiting RNA (siRNA) specific for HLJ1 decreased the endogenous HLJ1 RNA level in the YY1 transfected cell line, PCY3.
Two siRNA sequences were synthesized according to standard protocols (68). The sequence of HLJ1-A was […]. The sequence of HLJ1-D was […]. HLJ1-A and HLJ1-D reduced its expression by 64%. […] A negative control, scrambled siRNA, had no significant effect on HLJ1 expression or invasive capacity.

**Q.** How did the “ability of PCY3 cells to invade through Matrigel, compared to PCC2 cells” value (PCY3 cells) turn out when “HLJ1-D: siRNA specific for HLJ1, sequence AAACGCTGATGGAAGGAGTTA (other strand not given here)” was run?
**A.** Its value is 87%.

**Q.** And the “reduction of HLJ1 expression” value (HLJ1)?
**A.** The value was 64%.
